Assay [1] addresses T1, human GSDMD WT-EGFP (Homo sapiens, UniProt P57764).
T1 construct: GSDMD WT fused to EGFP, transiently expressed in HEK293T cells, cell lysate (MST) or cells (CETSA)
T1 sequence (P57764 1-484): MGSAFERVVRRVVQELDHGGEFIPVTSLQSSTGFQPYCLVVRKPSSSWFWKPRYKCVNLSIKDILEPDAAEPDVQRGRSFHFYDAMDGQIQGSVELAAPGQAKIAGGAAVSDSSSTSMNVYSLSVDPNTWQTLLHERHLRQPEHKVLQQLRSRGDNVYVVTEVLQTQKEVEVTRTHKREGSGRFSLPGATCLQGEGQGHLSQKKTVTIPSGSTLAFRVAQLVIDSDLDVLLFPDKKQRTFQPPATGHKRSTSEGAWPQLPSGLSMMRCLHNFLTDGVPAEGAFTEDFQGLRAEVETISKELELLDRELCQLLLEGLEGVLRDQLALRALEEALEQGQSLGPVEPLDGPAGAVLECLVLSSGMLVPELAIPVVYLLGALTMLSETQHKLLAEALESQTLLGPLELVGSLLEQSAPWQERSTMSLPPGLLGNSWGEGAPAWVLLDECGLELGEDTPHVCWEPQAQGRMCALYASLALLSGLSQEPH
The experiment in a line: cellular thermal shift assay (CETSA), western blot. It is filed as cell-based. Conditions: transfected HEK293T cells, 2 h. A general note: A western blot detects proteins with antibodies after separation by electrophoresis.

Assay [2] deals with T1, human GSDMD WT-EGFP. As to the kind of experiment: microscale thermophoresis in cell lysate. Format: biochemical. On the technique in general: Microscale thermophoresis detects binding through changes in fluorescence in a small temperature gradient.
The next assay has as its target T2, mouse GSDMD WT-EGFP (Mus musculus, UniProt Q9D8T2).
T2 construct: GSDMD WT fused to EGFP, transiently expressed in AML12 cells, cell lysate (MST); CETSA in AML12 cells with no transfection stated
T2 sequence (Q9D8T2 1-487): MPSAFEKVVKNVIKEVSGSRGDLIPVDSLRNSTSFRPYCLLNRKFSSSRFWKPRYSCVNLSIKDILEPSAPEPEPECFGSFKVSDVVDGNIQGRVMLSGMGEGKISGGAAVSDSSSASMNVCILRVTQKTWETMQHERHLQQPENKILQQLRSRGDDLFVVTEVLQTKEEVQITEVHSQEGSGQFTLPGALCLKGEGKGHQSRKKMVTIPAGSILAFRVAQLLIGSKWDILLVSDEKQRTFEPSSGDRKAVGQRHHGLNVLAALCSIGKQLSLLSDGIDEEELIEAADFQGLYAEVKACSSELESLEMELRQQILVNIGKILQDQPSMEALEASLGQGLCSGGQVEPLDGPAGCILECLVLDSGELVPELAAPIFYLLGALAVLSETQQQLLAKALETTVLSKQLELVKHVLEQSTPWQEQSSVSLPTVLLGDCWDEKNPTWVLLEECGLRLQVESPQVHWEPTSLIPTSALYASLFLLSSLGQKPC
The experiment in a line: microscale thermophoresis in cell lysate. It is filed as biochemical.

From publication PMC8841757, “Direct Inhibition of GSDMD by PEITC Reduces Hepatocyte Pyroptosis and Alleviates Acute Liver Injury in Mice” (Frontiers in Immunology, 2022) come the findings set out here.

For orientation: Kd means the constant that tells how readily two partners part at equilibrium. Low readings indicate a tighter complex, high ones a looser complex. As for `COc1nccnc1NS(=O)(=O)c1ccc(NC(=O)/C=C/c2ccc([N+](=O)[O-])s2)cc1` [NSA], the “thermal stability (CETSA)” value at human GSDMD WT-EGFP [1] (3 μM NSA) is “NSA enhanced the thermal stability of human WT-GSDMD”. On human GSDMD WT-EGFP [2], this molecule gave a Kd of 11200 nM.

`S=C=NCCc1ccccc1` [PEITC]: the Kd came out at 308 nM on mouse GSDMD WT-EGFP and 230 nM at human GSDMD WT-EGFP [2]. Further, the “thermal stability (CETSA)” value at human GSDMD WT-EGFP [1] (3 μM PEITC) is “PEITC reduced the thermal stability of human WT-GSDMD”.
